Assay in all cases: growth of human tumour cells (NCI), 48 h
Test [1] deals with OVCAR-3 ovarian.
Test [2] has as its system MCF7 breast.
Test [3] has as its system BT-549 breast.
In test [4] the test system is K-562 leukemia.
Test [5] deals with SF-295 CNS.
The subject of test [6] is SW-620 colon.
For test [7], the system named is NCI/ADR-RES ovarian.
Test [8] relates to HCT-116 colon.

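Tested at 5 concentrations; 48 h exposure; 96-well plates; endpoints linearly interpolated, else capped at highest concentration. At the GI50, growth is halved. TGI is the concentration that stops growth completely.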

`Cc1ccc(S(=O)(=O)N/N=C2\C3CC4CC(C3)C2C4)cc1` (configuration not stated): the TGI in test [1], in test [2], in test [3], in test [4], in test [5] and in test [6] was above 100 µM each time. Also, in test [7], the TGI is above 100 µM.
Take `O=C1/C(=C\c2cccc(Oc3ccccc3)c2)SC(c2ccccc2)N1c1cccc([N+](=O)[O-])c1` (configuration not stated): the TGI in test [1], in test [8], in test [2], in test [3], in test [4] and in test [5] was above 100 µM throughout. Further, the TGI in test [6] and in test [7] was above 100 µM throughout.
Consider `COc1ccc(C(=O)c2ccc(-n3cc(/C=C/[N+](=O)[O-])c4ccccc43)cc2)cc1`, for which the TGI in test [1] is 27.1 µM; in test [8] it was 28.2 µM; in test [2], above 34.2 µM; in test [3], 33.7 µM; in test [4], above 100 µM; in test [5], above 100 µM. In addition, the TGI in test [6] is above 100 µM; in test [7], 56.5 µM.
Regarding `O=S1(=O)OCCOS(=O)(=O)C1Cc1nc2ccccc2[nH]1`, the TGI is above 100 µM in test [1]; 57 µM in test [8]; above 100 µM in test [2]; above 100 µM in test [4]; above 100 µM in test [5]; above 100 µM in test [7].
For the compound `CC1=C2NCN(C)N=C2C(C#N)(C#N)C1(C#N)C#N`, the TGI in test [1] was 66.8 µM; in test [8] it was 57.4 µM; in test [2] it was above 70.7 µM; in test [3], 44.5 µM; in test [4], above 100 µM; in test [5], above 100 µM. The figures for the TGI in test [6] and in test [7] were 42.2 µM and above 68.5 µM, respectively.
As to `CC(C)C1CC(CO)(CNc2cc(Cl)nc(N)n2)C1` (configuration not stated), the TGI in test [1], in test [8], in test [2], in test [3], in test [4] and in test [5] was above 100 µM throughout. Moreover, the TGI in test [6] and in test [7] was above 100 µM in each case.
For the compound `O=C(CSc1nc2ccc(I)cc2c(=O)n1Cc1ccccc1)NN1C(=O)CCC1=O`, the TGI is 70.6 µM in test [1]; above 100 µM in test [8]; above 100 µM in test [2]; above 100 µM in test [4]; above 100 µM in test [5]; above 100 µM in test [6]. Moreover, in test [7], the TGI was above 100 µM.
On to `COC(=O)c1ccc(/C=C2\CCc3ccccc3C2=O)cc1`, for which the TGI in test [1], in test [8], in test [2], in test [3], in test [4] and in test [5] was above 100 µM throughout. For the same compound, the TGI in test [6] and in test [7] was above 100 µM in each case.
In the case of `Cc1cn([C@H]2[C@@H](CO)C[C@H]2O)c(=O)[nH]c1=O`, the TGI in test [1], in test [8], in test [2], in test [3], in test [4] and in test [5] was above 100 µM each time. Further, the TGI in test [6] and in test [7] was above 100 µM throughout.
Consider `CC(=O)c1ccc(NC(=O)CSc2nc(C)nc3c2sc(=S)n3-c2ccccc2)cc1`, for which the TGI in test [1] was above 3.16 µM; in test [8], above 3.16 µM; in test [2], above 10 µM; in test [4], above 10 µM; in test [5], above 3.16 µM; in test [6] it was above 3.16 µM. Further, in test [7], the TGI was above 3.16 µM.
With `c1ccc([P+](c2ccccc2)(c2ccccc2)c2ccc([P+](c3ccccc3)(c3ccccc3)c3ccccc3)cc2)cc1`, the TGI in test [1], in test [8], in test [2], in test [3], in test [4] and in test [5] was above 100 µM in each case. The TGI in test [6] and in test [7] was above 100 µM each time.
On to `O=c1oc2ccc(Cl)cc2cc1-c1cn2ccsc2n1`, for which the TGI was above 100 µM in test [1]; above 100 µM in test [8]; 65.4 µM in test [2]; 70.3 µM in test [3]; above 100 µM in test [4]; above 100 µM in test [5]. Also, the TGI in test [6] and in test [7] was above 100 µM throughout.
On to `Nc1ncc(/C=N/O)c(NCC2(CO)CC(CCc3ccccc3)C2)n1` (configuration not stated), for which the TGI in test [1] was determined as 30.7 µM; in test [8] it was 18 µM; in test [2], 22.2 µM; in test [4], 31.7 µM; in test [5], 22.7 µM; in test [7], 70.6 µM.
On to `CC/C(Cl)=N\OC(=O)Nc1ccc(F)cc1F`, for which the TGI in test [1] is 31.9 µM; in test [8] it was 19.1 µM; in test [2], 44.9 µM; in test [3] it was 6.93 µM; in test [4] it was 2.34 µM; in test [5], above 60 µM. Further, the TGI in test [6] came to 2.95 µM; in test [7], 44.5 µM.
On to `CCN(CC)CCN(C)CCc1ccc(Br)cc1`, for which the TGI in test [1], in test [8], in test [2], in test [3], in test [4] and in test [5] was above 100 µM throughout. In addition, the TGI in test [6] and in test [7] was above 100 µM each time.
For `COc1cc(-n2cc(-c3cc(O)c(C/C=C(\C)CCC=C(C)C)c(O)c3)nn2)cc2c1O[C@]1(C)CC[C@@H](O)C(C)(C)[C@H]1C2`, the GI50 is 2.58 µM in test [1]; 1.15 µM in test [8]; 0.338 µM in test [2]; 0.974 µM in test [3]; 0.028 µM in test [5]; 0.726 µM in test [6]. The GI50 in test [7] was 3.51 µM. Moreover, the TGI came to 14.3 µM in test [1]; 23.5 µM in test [8]; 19.2 µM in test [2]; 20.5 µM in test [3]; 0.122 µM in test [5]; 10.7 µM in test [6]. This compound also registered a TGI in test [7] of 68.6 µM.

(Values after PubChem BioAssay (NCI).)
